Key:
Assay type in all cases: in vivo
[1] = test system: NK model in Chinchilla rabbits (ophthalmic branch (V1) of trigeminal nerve injured with sodium hydroxide); assay: Corneal ulceration area, slit-lamp with cobalt blue light, NK rabbit model; conditions: for Corneal Ulceration Area: X ± SEM, n = 8
Description: (§1) The NK model is established in Chinchilla rabbits by using a chemical method to destroy the ophthalmic branch (V1) of trigeminal nerve to induce NK. Briefly, animals were anesthetized. […] The trigeminal nerve was carefully separated from surrounding fasciae, and the ophthalmic nerve (V1) of trigeminal nerve was isolated and injured with sodium hydroxide solution. The V1 injury was performed for unilateral eye in each animal for 5 days prior to treatment.
(§2) A total of 16 animals were assigned randomly into two groups based on corneal ulcer areas at Day 1 prior to the treatments, and the animals received either BRM424 ophthalmic solution (OS containing 0.03% BRM424; TA-1 group) or Vehicle (TA-2 group) in the surgical eye three times daily (TID, eye drops) for 28 days. During the study period, the corneal ulcer areas, corneal fluorescein staining, corneal sensitivity, Schirmer test, and Tear film break-up time (TFBUT) at baseline (Day 0), Day 4, Day 8, Day 15, Day 22, and Day 29 were measured.
Corneal ulceration areas were measured from images taken during slit-lamp examination with cobalt blue light. […] At Day 0, the corneal ulceration areas were 25.98±1.88 mm^2 for the TA-1 group and 27.65±2.66 mm^2 for the TA-2 group, and these areas were reduced to 7.80±1.45 mm^2 and 13.30±2.36 mm^2 by Day 8 for the TA-1 group and TA-2 group, respectively.

[2] = test system: NK model in Chinchilla rabbits (ophthalmic branch (V1) of trigeminal nerve injured with sodium hydroxide); assay: Corneal fluorescein staining (FL score), NK rabbit model; design: Fluorescein Staining Score: scale not given here; conditions: for Fluorescein Staining Score: X ± SEM, n = 8
Description: as §1, §2
Cornea damage may be assessed using corneal fluorescein staining. […] The mean value of corneal fluorescein sodium staining scores at Day 0 was 3.62±0.18 for both the TA-1 and TA-2 groups and fell below 3 (TA-1=1.38±0.18, TA-2=2.36±0.42) by Day 8, indicating a quick onset of action. […] The fluorescein staining score of the TA-1 group reached 1 by Day 29.

[3] = test system: NK model in Chinchilla rabbits (ophthalmic branch (V1) of trigeminal nerve injured with sodium hydroxide); assay: Central corneal sensitivity with Von Frey filaments, NK rabbit model; conditions: for Corneal Sensitivity, Contact force (Nylon size) / Corneal Sensitivity, Contact force: X ± SEM, n = 8
Description: as §1, §2
Central corneal sensitivity was monitored using Von Frey filaments. Various forces of calibrated Von Frey filaments (0.008-300 g) were applied to the center of the cornea surface of immobilized animal. The mechanical threshold response was determined by assessing treated-eye blinking response evoked by the same calibrated Von Frey filaments twice out of three times. FIG. 4A and FIG. 4B show results for corneal sensitivity tests. Prior to the dose administration (Day 0), there was no corneal reflex in all animals, even when using the coarsest nylon filament (Force 0.008-300 g).

[4] = test system: NK model in Chinchilla rabbits (ophthalmic branch (V1) of trigeminal nerve injured with sodium hydroxide); assay: Tear film break-up time (TFBUT), NK rabbit model; conditions: for TFBUT: X ± SEM, n = 8
Description: as §1, §2

[5] = test system: NK model in Chinchilla rabbits (ophthalmic branch (V1) of trigeminal nerve injured with sodium hydroxide); assay: Schirmer test for tear production, NK rabbit model; conditions: for Schirmer Test: X ± SEM, n = 8
Description: as §1, §2
However, the tear volumes of the TA-1 group at Day 29 were about 2-fold higher than that at Day 0.

[6] = Day 0 (baseline, prior to treatment)
[7] = Day 0 (baseline, prior to treatment), listed as TA-1
[8] = Day 4, 0.03% BRM424 ophthalmic solution TID
[9] = Day 8, 0.03% BRM424 ophthalmic solution TID
[10] = Day 15, 0.03% BRM424 ophthalmic solution TID
[11] = Day 22, 0.03% BRM424 ophthalmic solution TID
[12] = Day 29, 0.03% BRM424 ophthalmic solution TID
[13] = after 29 days of topical dose administrations

“SLGAEQRTESIIHRALYYDLISSPDIHGT (ophthalmic solution 0.03%; listed as Homo sapiens) [BRM424, PEDF-derived short peptide (PDSP), residues 93-121 of PEDF]” was tested, and the “Corneal Ulceration Area” value [1, 6] was 25.98 ± 1.88 mm^2, the “Corneal Ulceration Area” value [1, 7] was 25.98±1.88 mm^2 and the “Corneal Ulceration Area” value ([1]; Day 4, 0.03% BRM424 ophthalmic solution, eye drops TID, surgical eye) was 13.63 ± 2.51 mm^2. The “Corneal ulceration area reduction compared with vehicle (TA-2) group” value ([1]; Day 8, Day 15 and Day 29, p<0.05) was “more than that of TA-2 group”, the “Corneal Ulceration Area” value ([1]; Day 8, 0.03% BRM424 ophthalmic solution, eye drops TID, surgical eye) was 7.80 ± 1.45 mm^2 and the “Corneal Ulceration Area” value ([1]; Day 8, 0.03% BRM424 ophthalmic solution, eye drops TID, surgical eye, listed as TA-1) was 7.80±1.45 mm^2. For the same sequence, the “Corneal Ulceration Area” value ([1]; Day 15, 0.03% BRM424 ophthalmic solution, eye drops TID, surgical eye) was 9.93 ± 2.46 mm^2, the “Corneal Ulceration Area” value ([1]; Day 22, 0.03% BRM424 ophthalmic solution, eye drops TID, surgical eye) was 7.29 ± 2.11 mm^2 and the “Corneal Ulceration Area” value ([1]; Day 29, 0.03% BRM424 ophthalmic solution, eye drops TID, surgical eye) was 4.81 ± 1.44 mm^2. For the same sequence, the “Fluorescein Staining Score” value [2, 6] was 3.62 ± 0.18, the “Fluorescein Staining Score” value [2, 7] was 3.62±0.18 and the “Fluorescein Staining Score” value ([2]; Day 4, 0.03% BRM424 ophthalmic solution, eye drops TID) was 2.00 ± 0.38. The “Fluorescein Staining Score” value ([2]; Day 8, 0.03% BRM424 ophthalmic solution, eye drops TID) was 1.38 ± 0.18, the “Fluorescein Staining Score” value ([2]; Day 8, 0.03% BRM424 ophthalmic solution, eye drops TID, listed as TA-1) was 1.38±0.18 and the “Fluorescein staining score, difference between TA-1 and TA-2 (vehicle) groups” value ([2]; Day 8 and Day 15, P<0.05) was “Significant difference”. The “Fluorescein Staining Score” value ([2]; Day 15, 0.03% BRM424 ophthalmic solution, eye drops TID) was 1.63 ± 0.36, the “Fluorescein Staining Score” value ([2]; Day 22, 0.03% BRM424 ophthalmic solution, eye drops TID) was 1.25 ± 0.16 and the “Fluorescein Staining Score” value ([2]; Day 29, 0.03% BRM424 ophthalmic solution, eye drops TID) was 1.00 ± 0.19. The “Fluorescein Staining Score” value ([2]; Day 29, 0.03% BRM424 ophthalmic solution, eye drops TID, listed as TA-1) was 1, the “Corneal Sensitivity, Contact force (Nylon size)” value ([3]; Day 0 (baseline, prior to treatment), Von Frey filament that triggered corneal reflex) was 6.65 ± 0.00 and the “Corneal Sensitivity, Contact force” value ([3]; Day 0 (baseline, prior to treatment), force that triggered corneal reflex) was 300.00 ± 0.00 g. For the same sequence, the “Corneal Sensitivity, Contact force” value [3, 8] was 300.00 ± 0.00 g, the “Corneal Sensitivity, Contact force (Nylon size)” value [3, 8] was 6.65 ± 0.00 and the “Corneal Sensitivity, Contact force” value [3, 9] was 300.00 ± 0.00 g. For the same sequence, the “Corneal Sensitivity, Contact force (Nylon size)” value [3, 9] was 6.65 ± 0.00, the “Corneal Sensitivity, Contact force” value [3, 10] was 235.75 ± 42.18 g and the “Corneal Sensitivity, Contact force (Nylon size)” value [3, 10] was 6.41 ± 0.16. For the same sequence, the “Corneal Sensitivity, Contact force” value [3, 11] was 300.00 ± 0.00 g, the “Corneal Sensitivity, Contact force (Nylon size)” value [3, 11] was 6.65 ± 0.00 and the “Corneal Sensitivity, Contact force” value [3, 12] was 189.75 ± 53.80 g. For the same sequence, the “Corneal Sensitivity, Contact force (Nylon size)” value [3, 12] was 5.93 ± 0.35, the “Corneal sensation recovery compared with vehicle (TA-2) group” value ([3]; after 29 days of treatments) was “recovered faster with better improvement than the TA-2 group” and the TFBUT [4, 6] was 5.50 ± 0.33 s. It also gave a TFBUT [4, 8] of 4.88 ± 0.48 s, a TFBUT [4, 9] of 6.75 ± 0.45 s and a TFBUT [4, 10] of 5.13 ± 0.55 s. For the same sequence, the TFBUT [4, 11] was 4.38 ± 0.32 s, the TFBUT [4, 12] was 5.38 ± 0.32 s and the “TFBUT, difference between TA-1 and TA-2 (vehicle) groups” value [4, 13] was “no significant difference”. The “Schirmer Test” value [5, 6] was 5.63 ± 0.71 mm, the “Schirmer Test” value [5, 8] was 6.00 ± 0.93 mm and the “Schirmer Test” value [5, 9] was 5.50 ± 1.02 mm. For the same sequence, the “Schirmer Test” value [5, 10] was 6.38 ± 0.86 mm, the “Schirmer Test” value [5, 11] was 6.50 ± 1.24 mm and the “Schirmer Test” value [5, 12] was 10.75 ± 1.59 mm. The “Tear volumes at Day 29 relative to Day 0” value ([5]; Day 29 vs Day 0, same group) was “about 2 fold” and the “Tear volumes, difference between TA-1 and TA-2 (vehicle) groups” value [5, 13] was “no significant difference”.
